The source made the active and inactive calls.
Assays:
[1] = THP-1 cell cytotoxicity, dose response, cytotoxicity control for non-replicating M. tuberculosis project (AID 489025); type: functional
Nonstructural protein 1 = Nonstructural protein 1 (Influenza A virus, UniProt Q194T2); type: functional, Influenza A virus (A/California/07/2009(H1N1))
[2] = Luminescence-based dose response cell-based high throughput screening assay for cytotoxic compounds using the IEC-6 intestinal epithelial cell line. [Related pubchem assays: 1858 (Summary AID.), 1825 (Counterscreen.), 1907 (Confirmation screen.)]; type: functional
[3] = molecular target: T1, Alkaline phosphatase, tissue-nonspecific isozyme (Homo sapiens, UniProt P05186); assay: activation of tissue-nonspecific alkaline phosphatase – biochemical, TNAP isozyme, human IAP uHTS hits, selectivity assay for human IAP activator project, dose response (AID 488886); type: functional;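 note: potency of compounds raising TNAP activity as a selectivity check on IAP activators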
T1 sequence (P05186 whole entry): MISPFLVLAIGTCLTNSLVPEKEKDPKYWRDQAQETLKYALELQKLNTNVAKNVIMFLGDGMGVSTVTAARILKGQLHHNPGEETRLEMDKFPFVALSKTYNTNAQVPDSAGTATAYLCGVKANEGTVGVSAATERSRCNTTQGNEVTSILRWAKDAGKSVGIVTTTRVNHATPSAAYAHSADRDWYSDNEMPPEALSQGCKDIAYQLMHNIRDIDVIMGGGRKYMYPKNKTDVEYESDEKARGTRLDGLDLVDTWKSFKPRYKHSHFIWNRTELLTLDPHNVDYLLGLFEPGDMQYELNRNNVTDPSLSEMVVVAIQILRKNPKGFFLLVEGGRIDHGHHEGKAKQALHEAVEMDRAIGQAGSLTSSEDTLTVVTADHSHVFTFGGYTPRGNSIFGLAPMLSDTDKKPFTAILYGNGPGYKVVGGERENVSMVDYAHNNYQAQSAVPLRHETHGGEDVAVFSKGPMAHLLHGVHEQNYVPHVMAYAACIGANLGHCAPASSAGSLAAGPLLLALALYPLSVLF

[4] = decrease of insulin promoter-GFP reporter – imaging, high-content screening, mouse beta cells (AID 1628); type: functional; details: MIN6
[5] = molecular target: T2, Intestinal-type alkaline phosphatase (Homo sapiens, UniProt P09923); assay: activation of human intestinal alkaline phosphatase – biochemical, luminescent, uHTS hits, set 2, dose response (AID 488817); type: functional;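 note: potency of activators that raise enzyme activity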
BJ [6] = assay: BJ-TERT fibroblast viability loss – cell-based, RAS-independent, luminescence, dose response (AID 1933); type: functional; details: Homo sapiens
[7] = HPDE-C7 pancreatic duct cell viability loss – fluorescence, HTS (AID 430); type: functional, cell-based; details: Homo sapiens
HEK293 = assay: EBV LMP1 TES2 canonical NF-kB signalling blockers – cell-based, HEK293, luciferase, cherry-pick, dose response (AID 588343); type: functional; details: Homo sapiens
[8] = Vero E6 cell cytotoxicity, dose response, cytotoxicity control for non-replicating M. tuberculosis project, secondary assay (AID 492998); type: functional, VeroE6; details: Vero C1008
cells = type: functional
[9] = HEK-293T viability loss after treatment – luminescence, T-cell screen hits, cytotoxicity control for TCR NF-kB inhibitor project, dose response (AID 489026); type: functional, cell-based;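 note: cells exposed to compound about 14 hours before the viability readout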
[10] = fluconazole-exposed Candida albicans growth modulators – fluorescence, retest, confirmation (AID 2467); type: functional, cell-based
[11] = HepG2 cell cytotoxicity, dose response, cytotoxicity control for non-replicating M. tuberculosis project (AID 489018); type: functional; details: Mycobacterium tuberculosis
[12] = Luminescence Cell-Based Dose Response HTS to Identify Inhibitors of 5'UTR Stem-Loop Driven Prion Protein mRNA Translation in H4 Neuroglioblastoma Cells. [Related pubchem assays: 1827 (Project Summary), 1813 (Primary HTS)]; type: functional
[13] = DRD fibroblast viability loss – cell-based, non-viral oncogenic, luminescence, dose response (AID 1934); type: functional; details: Homo sapiens
[14] = molecular target: Heat shock protein HSP 90-alpha (Homo sapiens, UniProt P07900); type: functional, organism-based
[15] = NIH-3T3 fibroblast cytotoxicity, dose response, cytotoxicity control, cell-based, fluorescence, Alamar Blue, secondary assay (AID 2327); type: functional;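 note: NIH-3T3 mouse fibroblasts cultured with fluconazole at 8 µg/mL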
[16] = alpha-synuclein stem-loop luciferase translation blockers – H4 neuroglioma cells, luminescence, confirmation (AID 1988); type: functional, cell-based
[17] = molecular target: T2, Intestinal-type alkaline phosphatase; assay: human intestinal alkaline phosphatase activators, dose response, biochemical, luminescence, uHTS hits (AID 463120); type: functional
[18] = viability loss of HPDE-C7K cells – cell-based, fluorescence, HTS, primary screen (AID 431); type: functional; details: Homo sapiens
BJ [19] = assay: cells; type: functional, cell-based; details: Homo sapiens
[20] = MIN6 cell viability loss – mouse insulinoma, cytotoxicity control, dose response (AID 2122); type: functional;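 note: confirmatory high-throughput counterscreen run to flag cytotoxic compounds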
INS1 = assay: INS-1E survival protection against cytokine death – cell-based, luminescence, retest, dose response (AID 449756); type: functional; details: Rattus norvegicus;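 note: cell death triggered by IL-1 beta plus TNF-alpha plus IFN-gamma mixture; protective hits raise ATP signal compared with cytokine alone wells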
[21] = luciferase reporter signal suppression in cells – H4 neuroglioma cells, luminescence, dose response (AID 1990); type: functional, cell-based
BJ [22] = assay: BJ-TERT-LT-ST fibroblast viability loss – cell-based, RAS-independent, luminescence, dose response (AID 1935); type: functional; details: Homo sapiens;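 note: BJ fibroblasts immortalized with TERT plus LT and ST oncogenes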
[23] = molecular target: Intestinal-type alkaline phosphatase (Mus musculus, UniProt P24822); assay: PubChem AID 488874; type: functional
[24] = molecular target: T3, G-protein coupled receptor 35 (Homo sapiens, UniProt Q9HC97); assay: SAR analysis of Antagonists of the GPR35 Receptor using an Image-Based Assay - Set 3. [Related pubchem assays (depositor defined):AID2013, AID2026]; type: functional
Cannabinoid receptor 2 [25] = molecular target: T4, Cannabinoid receptor 2 (Homo sapiens, UniProt P34972); assay: SAR analysis of agonists of the Cannabinoid Receptor 2 using an Image-Based Assay. [Related pubchem assays (depositor defined):AID2013, AID2026]; type: functional
Cannabinoid receptor 2 [26] = molecular target: T4, Cannabinoid receptor 2; assay: SAR analysis of antagonists of the Cannabinoid Receptor 2 using an Image-Based Assay. [Related pubchem assays (depositor defined):AID2013, AID2026]; type: functional
Cannabinoid receptor 1 [27] = molecular target: T5, Cannabinoid receptor 1 (Homo sapiens, UniProt P21554); assay: SAR analysis of agonists of the Cannabinoid Receptor 1 using an Image-Based Assay - Set 2. [Related pubchem assays (depositor defined):AID2013, AID2026]; type: functional
[28] = molecular target: G-protein coupled receptor 55 (Homo sapiens, UniProt Q9Y2T6); assay: blockade of LPI-induced GPR55 arrestin translocation – imaging, U2OS, beta-arrestin-GFP, LPI agonist, set 2, SAR follow-up (AID 2820); type: functional
[29] = molecular target: T3, G-protein coupled receptor 35; assay: SAR analysis of Agonists of the GPR35 Receptor using an Image-Based Assay - Set 2. [Related pubchem assays (depositor defined):AID2013, AID2026]; type: functional
Cannabinoid receptor 1 [30] = molecular target: T5, Cannabinoid receptor 1; assay: SAR analysis of antagonists of the Cannabinoid Receptor 1 using an Image-Based Assay - Set 2. [Related pubchem assays (depositor defined):AID2013, AID2026]; type: functional
Hexokinase-1 = molecular target: T6, Hexokinase-1 (Homo sapiens, UniProt P19367); assay: HK1 enzyme activation by HKDC1 hits – biochemical, selectivity assay for HKDC1 activator project, dose response (AID 504762); type: functional
T6 sequence (P19367 whole entry): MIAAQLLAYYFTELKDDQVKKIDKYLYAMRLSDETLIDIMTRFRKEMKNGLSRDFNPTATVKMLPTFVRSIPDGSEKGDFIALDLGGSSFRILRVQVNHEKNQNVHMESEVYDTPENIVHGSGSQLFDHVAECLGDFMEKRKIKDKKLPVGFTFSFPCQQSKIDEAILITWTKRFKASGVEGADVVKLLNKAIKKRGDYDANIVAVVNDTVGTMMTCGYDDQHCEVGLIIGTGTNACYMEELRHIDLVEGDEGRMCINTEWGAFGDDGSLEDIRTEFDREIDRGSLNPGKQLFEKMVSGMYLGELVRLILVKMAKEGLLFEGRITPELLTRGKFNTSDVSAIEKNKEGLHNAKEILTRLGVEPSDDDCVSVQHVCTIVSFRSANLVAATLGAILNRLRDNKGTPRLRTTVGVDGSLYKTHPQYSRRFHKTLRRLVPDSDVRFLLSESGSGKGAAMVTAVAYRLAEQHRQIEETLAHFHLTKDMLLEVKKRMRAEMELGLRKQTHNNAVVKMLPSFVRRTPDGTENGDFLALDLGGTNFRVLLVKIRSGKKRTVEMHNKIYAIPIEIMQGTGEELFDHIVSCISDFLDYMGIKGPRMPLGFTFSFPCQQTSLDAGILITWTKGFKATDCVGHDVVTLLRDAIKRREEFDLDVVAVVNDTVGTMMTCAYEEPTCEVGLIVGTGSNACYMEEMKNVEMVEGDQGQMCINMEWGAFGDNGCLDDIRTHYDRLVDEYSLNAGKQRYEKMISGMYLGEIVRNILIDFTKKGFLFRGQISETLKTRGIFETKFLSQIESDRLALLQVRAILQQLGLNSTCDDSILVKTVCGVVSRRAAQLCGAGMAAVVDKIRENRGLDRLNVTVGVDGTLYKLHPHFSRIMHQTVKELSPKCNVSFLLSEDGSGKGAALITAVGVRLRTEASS

[31] = molecular target: Histone-lysine N-methyltransferase NSD2 (Homo sapiens, UniProt O96028); type: biochemical
Hexokinase HKDC1 = molecular target: T7, Hexokinase HKDC1 (Homo sapiens, UniProt Q2TB90); assay: activation of HKDC1 glucose phosphorylation – biochemical, W721R variant, dose response (AID 504730); type: functional
T7 sequence (Q2TB90 whole entry): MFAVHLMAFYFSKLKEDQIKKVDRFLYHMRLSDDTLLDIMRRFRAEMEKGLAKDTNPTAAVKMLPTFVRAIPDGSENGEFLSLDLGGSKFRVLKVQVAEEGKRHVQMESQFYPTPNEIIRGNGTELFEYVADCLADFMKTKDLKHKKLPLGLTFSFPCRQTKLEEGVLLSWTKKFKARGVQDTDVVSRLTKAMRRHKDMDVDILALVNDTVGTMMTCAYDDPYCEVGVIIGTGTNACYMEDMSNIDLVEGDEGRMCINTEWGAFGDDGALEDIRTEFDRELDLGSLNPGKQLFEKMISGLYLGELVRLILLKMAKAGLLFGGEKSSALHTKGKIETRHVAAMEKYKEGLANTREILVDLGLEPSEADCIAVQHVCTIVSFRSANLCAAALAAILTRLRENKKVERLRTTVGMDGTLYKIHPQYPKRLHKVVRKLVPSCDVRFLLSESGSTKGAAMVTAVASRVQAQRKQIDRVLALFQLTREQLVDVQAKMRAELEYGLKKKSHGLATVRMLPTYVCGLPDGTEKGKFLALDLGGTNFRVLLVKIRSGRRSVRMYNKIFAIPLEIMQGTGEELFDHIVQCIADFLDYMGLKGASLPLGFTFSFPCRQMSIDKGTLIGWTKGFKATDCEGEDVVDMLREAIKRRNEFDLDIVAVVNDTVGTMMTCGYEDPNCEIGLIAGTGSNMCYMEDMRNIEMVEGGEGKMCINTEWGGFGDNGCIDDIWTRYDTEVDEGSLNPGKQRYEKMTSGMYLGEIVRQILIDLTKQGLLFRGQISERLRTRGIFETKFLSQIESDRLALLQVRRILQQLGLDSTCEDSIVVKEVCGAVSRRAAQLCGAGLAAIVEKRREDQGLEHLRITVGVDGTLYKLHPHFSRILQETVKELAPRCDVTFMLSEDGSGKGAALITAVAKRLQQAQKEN

T5 sequence (P21554 whole entry): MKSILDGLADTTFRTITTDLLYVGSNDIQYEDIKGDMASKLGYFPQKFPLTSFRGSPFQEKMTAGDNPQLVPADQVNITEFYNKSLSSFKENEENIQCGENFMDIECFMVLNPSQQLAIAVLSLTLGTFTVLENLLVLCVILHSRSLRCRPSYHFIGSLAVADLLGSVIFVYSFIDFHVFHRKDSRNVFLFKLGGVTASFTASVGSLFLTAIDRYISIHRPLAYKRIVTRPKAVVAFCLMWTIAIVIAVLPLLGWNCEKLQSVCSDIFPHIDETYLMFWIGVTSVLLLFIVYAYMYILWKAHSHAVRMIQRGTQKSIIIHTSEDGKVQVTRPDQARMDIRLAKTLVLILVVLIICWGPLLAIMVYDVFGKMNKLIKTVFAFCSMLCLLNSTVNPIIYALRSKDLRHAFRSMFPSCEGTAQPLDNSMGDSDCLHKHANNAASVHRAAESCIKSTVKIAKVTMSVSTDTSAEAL
T4 sequence (P34972 whole entry): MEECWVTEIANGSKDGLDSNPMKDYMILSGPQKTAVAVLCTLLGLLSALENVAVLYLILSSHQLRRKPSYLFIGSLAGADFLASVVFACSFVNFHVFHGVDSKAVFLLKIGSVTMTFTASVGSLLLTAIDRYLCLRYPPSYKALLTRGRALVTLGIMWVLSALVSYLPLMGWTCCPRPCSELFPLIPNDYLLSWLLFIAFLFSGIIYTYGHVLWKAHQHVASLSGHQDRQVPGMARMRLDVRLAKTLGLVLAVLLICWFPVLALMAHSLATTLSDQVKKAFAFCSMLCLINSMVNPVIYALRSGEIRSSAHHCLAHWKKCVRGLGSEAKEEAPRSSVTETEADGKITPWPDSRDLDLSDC
T2 sequence (P09923 whole entry): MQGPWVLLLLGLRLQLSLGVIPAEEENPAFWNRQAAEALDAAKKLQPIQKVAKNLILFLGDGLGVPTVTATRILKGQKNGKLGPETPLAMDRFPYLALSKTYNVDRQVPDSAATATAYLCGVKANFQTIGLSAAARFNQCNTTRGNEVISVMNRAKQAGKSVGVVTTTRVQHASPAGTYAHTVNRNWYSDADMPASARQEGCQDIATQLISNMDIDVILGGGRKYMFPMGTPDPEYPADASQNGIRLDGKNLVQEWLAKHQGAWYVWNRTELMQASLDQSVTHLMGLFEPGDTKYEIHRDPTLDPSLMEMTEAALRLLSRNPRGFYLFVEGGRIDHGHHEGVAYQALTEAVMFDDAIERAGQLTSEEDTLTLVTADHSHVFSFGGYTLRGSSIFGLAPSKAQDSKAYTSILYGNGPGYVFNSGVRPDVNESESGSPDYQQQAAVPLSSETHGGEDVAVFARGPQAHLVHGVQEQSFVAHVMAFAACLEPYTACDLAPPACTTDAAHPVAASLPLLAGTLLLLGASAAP
T3 sequence (Q9HC97 whole entry): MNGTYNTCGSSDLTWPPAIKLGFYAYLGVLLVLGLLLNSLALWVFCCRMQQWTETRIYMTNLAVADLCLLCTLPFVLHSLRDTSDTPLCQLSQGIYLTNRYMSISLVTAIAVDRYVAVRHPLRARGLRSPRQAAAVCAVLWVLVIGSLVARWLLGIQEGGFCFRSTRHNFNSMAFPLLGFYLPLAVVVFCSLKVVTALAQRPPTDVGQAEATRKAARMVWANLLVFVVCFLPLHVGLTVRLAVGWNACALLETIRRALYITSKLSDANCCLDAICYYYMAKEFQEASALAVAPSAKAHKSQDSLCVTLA
Nonstructural protein 1, sequence (Q194T2 whole entry): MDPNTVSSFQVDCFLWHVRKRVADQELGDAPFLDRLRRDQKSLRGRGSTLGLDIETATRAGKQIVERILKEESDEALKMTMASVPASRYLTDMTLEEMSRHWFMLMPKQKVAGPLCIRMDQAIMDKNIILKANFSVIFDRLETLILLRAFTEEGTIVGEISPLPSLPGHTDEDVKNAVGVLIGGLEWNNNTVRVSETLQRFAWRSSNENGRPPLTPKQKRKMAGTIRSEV
Intestinal-type alkaline phosphatase (Mus musculus, UniProt P24822), sequence (P24822 whole entry): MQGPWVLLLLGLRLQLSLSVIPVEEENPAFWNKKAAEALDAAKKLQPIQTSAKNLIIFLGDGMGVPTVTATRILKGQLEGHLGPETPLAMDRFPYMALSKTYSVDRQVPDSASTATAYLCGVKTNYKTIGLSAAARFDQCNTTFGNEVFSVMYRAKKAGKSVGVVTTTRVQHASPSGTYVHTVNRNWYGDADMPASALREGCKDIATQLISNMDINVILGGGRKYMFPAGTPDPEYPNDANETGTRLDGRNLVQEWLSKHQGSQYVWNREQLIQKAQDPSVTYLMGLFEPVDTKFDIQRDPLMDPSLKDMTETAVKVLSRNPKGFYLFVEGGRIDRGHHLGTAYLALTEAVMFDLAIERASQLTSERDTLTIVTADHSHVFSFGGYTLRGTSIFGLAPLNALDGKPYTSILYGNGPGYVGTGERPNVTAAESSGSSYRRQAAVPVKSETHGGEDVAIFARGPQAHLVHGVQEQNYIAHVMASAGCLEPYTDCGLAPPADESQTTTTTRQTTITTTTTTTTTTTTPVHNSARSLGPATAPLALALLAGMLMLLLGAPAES
G-protein coupled receptor 55, sequence (Q9Y2T6 whole entry): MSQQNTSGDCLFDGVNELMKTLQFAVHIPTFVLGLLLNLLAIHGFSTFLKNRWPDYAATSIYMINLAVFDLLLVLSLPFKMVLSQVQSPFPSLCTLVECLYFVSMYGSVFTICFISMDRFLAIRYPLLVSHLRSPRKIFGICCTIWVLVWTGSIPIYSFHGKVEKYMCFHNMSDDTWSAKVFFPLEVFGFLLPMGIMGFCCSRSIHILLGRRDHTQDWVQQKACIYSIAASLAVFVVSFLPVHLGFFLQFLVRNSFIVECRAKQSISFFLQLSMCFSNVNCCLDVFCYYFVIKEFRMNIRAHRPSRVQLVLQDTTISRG
Histone-lysine N-methyltransferase NSD2, sequence (O96028 whole entry): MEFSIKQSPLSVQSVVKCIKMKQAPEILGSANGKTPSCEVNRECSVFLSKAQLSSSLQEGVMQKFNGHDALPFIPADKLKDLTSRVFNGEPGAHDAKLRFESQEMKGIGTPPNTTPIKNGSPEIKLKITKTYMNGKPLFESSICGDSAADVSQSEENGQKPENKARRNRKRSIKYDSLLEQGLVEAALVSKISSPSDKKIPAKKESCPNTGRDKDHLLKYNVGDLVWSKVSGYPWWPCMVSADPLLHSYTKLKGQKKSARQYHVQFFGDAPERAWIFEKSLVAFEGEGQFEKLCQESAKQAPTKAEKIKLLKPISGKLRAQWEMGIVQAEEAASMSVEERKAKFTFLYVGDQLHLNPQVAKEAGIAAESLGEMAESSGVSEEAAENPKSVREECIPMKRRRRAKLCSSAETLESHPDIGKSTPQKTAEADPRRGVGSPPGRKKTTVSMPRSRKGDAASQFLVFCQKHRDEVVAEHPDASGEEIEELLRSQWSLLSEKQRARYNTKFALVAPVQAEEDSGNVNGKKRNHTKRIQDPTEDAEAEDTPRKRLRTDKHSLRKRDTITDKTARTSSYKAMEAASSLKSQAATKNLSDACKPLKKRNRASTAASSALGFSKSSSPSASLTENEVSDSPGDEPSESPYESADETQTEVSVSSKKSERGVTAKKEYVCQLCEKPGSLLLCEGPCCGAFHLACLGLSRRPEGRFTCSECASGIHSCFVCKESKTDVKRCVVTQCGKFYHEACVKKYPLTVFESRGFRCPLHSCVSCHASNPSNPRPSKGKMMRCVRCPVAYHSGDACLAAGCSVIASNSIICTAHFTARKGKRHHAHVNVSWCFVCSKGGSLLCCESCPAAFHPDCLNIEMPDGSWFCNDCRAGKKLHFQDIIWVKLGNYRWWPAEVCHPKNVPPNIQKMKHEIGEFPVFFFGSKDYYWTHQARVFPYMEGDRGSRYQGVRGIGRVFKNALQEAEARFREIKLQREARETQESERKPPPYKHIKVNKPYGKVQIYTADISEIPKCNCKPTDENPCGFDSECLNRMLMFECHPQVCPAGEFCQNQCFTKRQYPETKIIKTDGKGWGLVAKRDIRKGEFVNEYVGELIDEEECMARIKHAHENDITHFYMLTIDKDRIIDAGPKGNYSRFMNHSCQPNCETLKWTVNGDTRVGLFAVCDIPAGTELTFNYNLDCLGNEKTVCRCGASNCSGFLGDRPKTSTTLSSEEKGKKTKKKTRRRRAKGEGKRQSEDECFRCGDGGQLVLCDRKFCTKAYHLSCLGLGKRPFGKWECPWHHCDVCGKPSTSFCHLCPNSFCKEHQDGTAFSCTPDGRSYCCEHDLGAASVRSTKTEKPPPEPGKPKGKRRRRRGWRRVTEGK

c1ccc(-c2cccc(-c3ccccn3)n2)nc1 [TERPYRIDINE]
CC50 [1]: 0.21 µM (active)
IC50 (Nonstructural protein 1): 1.84 µM (active)
IC50 [2]: 0.483 µM (active)
EC50 [3]: 27.5 µM (active)
IC50 [4]: 0.504 µM (active)
EC50 [5]: 25.3 µM (active)
EC50 (BJ [6]): 11.2 µM (active)
EC50 [7]: 4.14 µM (active)
AC50 (HEK293): 2.11 µM (active)
CC50 [8]: 1.02 µM (active)
IC50 (cells): 44.9 µM (active)
IC50 [9]: > 80 µM (inactive)
EC50 [10]: 0.349 µM (active)
CC50 [11]: > 20 µM (active)
EC50 [12]: < 0.1 µM (active)
EC50 [13]: 17.1 µM (inconclusive)
AC50 [14]: 1.35 µM (active)
EC50 [15]: 1.32 µM (active)
EC50 [16]: < 0.1 µM (active)
EC50 [17]: 16.8 µM (active)
EC50 [18]: 2.54 µM (active)
EC50 (BJ [19]): 4.87 µM (active)
IC50 [20]: 0.716 µM (active)
AC50 (INS1): < 0.195 µM (active)
EC50 [21]: < 0.1 µM (active)
EC50 (BJ [22]): 4.32 µM (inconclusive)
IC50 [23]: > 100 µM (inactive)

COc1ccc(CNCCC(c2ccccc2)c2ccc3c(c2)OCO3)cc1 (configuration not stated)
IC50 [24]: > 32 µM (inactive)
EC50 (Cannabinoid receptor 2 [25]): > 32 µM (inactive)
IC50 (Cannabinoid receptor 2 [26]): > 32 µM (inactive)
EC50 (Cannabinoid receptor 1 [27]): > 32 µM (inactive)
IC50 [28]: 0.917 µM (active)
EC50 [29]: > 32 µM (inactive)
IC50 (Cannabinoid receptor 1 [30]): 5.82 µM (active)

CC(=O)Oc1cccc2c1C(=O)C1CC=CC(OC(C)=O)C1C2=O (configuration not stated)
EC50 (Hexokinase-1): 34.1 µM (inactive)
AC50 [31]: 10.4 µM (active)
EC50 (Hexokinase HKDC1): 51.6 µM (inactive)
